According to patent US5200343A, “Method for microbial dehalogenation of haloaliphatic compounds using a sulfate reducing bacteria, desulfomonile tiedjei” (Board of Trustees operating Michigan State University, priority 1991, dated 1993):
Like-named read-outs stand apart in the source and are kept apart here.

Columns and labels:
[1] = test system: 3-Chlorobenzoate Dechlorination Activity; test: Induction of 3-chlorobenzoate dechlorination activity by growth with 3-chlorobenzoate, analogues, or chloro- and iodobenzoates (Tables 4, 5); type: cell-based, Desulfomonile tiedjei
Procedure: Table 4. Cultures were grown in the presence of 3-chlorobenzoate or a 3-chlorobenzoate analogue substituted at the 1- or 3- position with the indicated functional groups. After several generations the culture were concentrated, washed and resuspended in anaerobic buffered salts containing 1 mM 3-chlorobenzoate and 10 mM pyruvate (as electron donor). […] After two hours samples were taken for benzoate analysis by HPLC. Values presented are the average of duplicate or triplicate cultures ± sample standard deviation.
Table 5. Chloro- and iodobenzoates were tested as inducers of 3-chlorobenzoate dehalogenation activity as described in the legend to Table 4. All compounds were initially at 500 μM; the 3-halo compounds were amended during growth as they were dehalogenated. Values presented are the average of duplicate or triplicate cultures± sample standard deviation.

[2] = test system: Dechlorination of 3-Chlorobenzoate; test: Dechlorination of 3-chlorobenzoate in the presence of various analogues by induced cells (Table 6); type: cell-based; settings: Desulfomonile tiedjei, read-out: dechlorination of 3-chlorobenzoate in the presence of analogue, % of Control
Procedure: […]. 3-fluorobenzoate induced cultures were washed and resuspended essentially as described in the legend to […] with 100 μM 3-chlorobenzoate and the indicated analogues at 500 μM. Dechlorination rates were normalized to the rate in assays with no analogue to obtain the values presented.

dechlorination of 3CB = settings: cited from earlier work
[3] = test system: Desulfomonile tiedjei cells; test: PCE and TCE dechlorination by resuspended cells induced with 3-fluorobenzoate versus non-induced cells (Table 1, FIG. 1); type: cell-based; settings: for Mole % recovered, TCE / Mole % recovered, cis-DCE / Total Cl Removed: 2 μg/ml substrate, 37° C., 2 hr; for Mole % recovered, TCE / Mole % recovered, cis-DCE: average of duplicate vials; for Total Cl Removed: calculated from input concentration and Mole % recovered
Procedure: (§1) Cultures were grown using strict anaerobic technique in a synthetic minimal medium amended with vitamins (DeWeerd, et al, Arch. of Microbiol. 154, 23-30 (1990)), pyruvate at 20 mM, and reduced with 1 mM cysteine and 0.1 mM Na2 S2 O4. The concentration of nicotinamide and 1,4-naphthoquinone were 500 μgl^-1 and 200 μgl^-1, respectively. Thiamine, hemin and lipoic acid were used at 50 μg/liter. To induce 3-chlorobenzoate dechlorination activity, 3-fluorobenzoate was added to 0.1 mM. The complete medium was inoculated with a 1% transfer from homologous medium (without fluorobenzoate). Cultures were grown at 37° C. in the dark for about 14 days for fresh cells or 28 days for starved stationary phase cells.
(§2) Cultures were harvested by centrifugation and resuspended in 20 to 40% of the initial volume in a cold anaerobic assay buffer normally consisting of 50 mM NaCl, 10 mM sodium pyruvate, 10 mM HEPES (N-2[hydroxyethylP]piperazine-N'-[2-ethanesulfonic acid], hemisodium salt Sigma);, 0.00001% resazurin and reduced with 1 mM cysteine-HCl and 1 mM titanium (III) citrate. Resuspended cells were used to completely fill N2 sparged 10 ml serum bottles after which chlorinated ethylenes were added from a 0.5 or 1 mg/ml stock in methanol for PCE and TCE respectively. The vials were immediately sealed with Teflon lined rubber septa and aluminum crimp seals, leaving no headspace. The assays were commenced by transferring the serum bottles to a 37° C. water bath. The assays were terminated at the indicated times by transferring the serum bottles to an ice water bath, where they were stored until analyzed. Protein concentrations were determined by a modification of the Lowry method (Hanson, R. S. and J. A. Phillips, In P. Gerhardt (ed.) Manual of methods for general microbiology. American Society for Microbiology, Washington, D. C. p. 328-364 (1981)).
(§3) Chlorinated ethylenes were monitored with a Tekmar purge and trap unit (model 4000) connected to a Hewlett-Packard GC (Sunnyville, Calif.) equipped with an HP-5 cappillary column (30 m×0.53 mm×2.6 μm film thickness) and flame ionization detector. Samples (5 ml) were purged onto Tenax TA (Supelco, Bellefonte, Pa.) adsorbent with helium (30 ml/min for 16 min.), desorbed (180° C. for 4 min.), and separated using helium as a carrier at 6 ml/min. The temperature program was 30° C. for 8 min, increasing to 200° C. at 4° C./min and followed by an isothermal period of 5 min. The injection and detector temperatures were 220° C. and 300° C., respectively. PCE and its dechlorinated products were identified by comparison with authentic standards.
To further examine the transformation of both PCE and TCE and to determine if dechlorination of TCE also requires induction, a similar experiment was conducted to measure the initial transformation rates of PCE and TCE (Table 1.). […] The extent of transformation of PCE to TCE ([…] in 2H) was considerably faster than the rate of transformation of TCE to DCE ([…] in 2h), as expected from the redox potentials of these reactions (Vogel, T. M., et al., Environ. Sci. Technol. 21:722-736 (1987)) and results from mixed culture systems (Bouwer, E. J., and P. L. McCarty, Appl. Environ. Microbiol. 45:1286-1294 (1983)). The rate of transformation of PCE and TCE were much greater for the induced cultures than for the non-induced cultures.
^a suspensions were amended with PCE or TCE to a final concentration
of 2 μg/ml and incubated at 37° C. for 2 hr. Suspensions of
induced and uninduced cells contained 149 and 153 μg protein per ml
^b Data are presented as the average of duplicate vials with the
sample standard deviation in parenthesis.
^c Calculated from the input concentration of chlorinated ethylenes
and the Mole % of recovered material.

[4] = test system: Desulfomonile tiedjei cells; test: Effect of different medium reductants and sterilant on PCE dechlorination by induced cells (Table 2); type: cell-based; settings: formaldehyde, final concentration 0.2%
Procedure: as §1, with “The” for “Cultures were grown using strict anaerobic technique in a synthetic minimal medium amended with vitamins (DeWeerd, et al, Arch. of Microbiol. 154, 23-30 (1990)), pyruvate at 20 mM, and reduced with 1 mM cysteine and 0.1 mM Na2 S2 O4. The”
as §2, with “analyzed.” for “analyzed. Protein concentrations were determined by a modification of the Lowry method (Hanson, R. S. and J. A. Phillips, In P. Gerhardt (ed.) Manual of methods for general microbiology. American Society for Microbiology, Washington, D. C. p. 328-364 (1981)).”
as §3
Data are the average of duplicate vials and […]

[5] = Table 5, inducers initially 500 μM, 3-halo compounds amended during growth
[6] = Table 4, inducers at 500 μM except 3-formylbenzoate 100 μM and 3-chlorobenzoate (amended at intervals), assay 1 mM 3-chlorobenzoate, two hours
[7] = 100 μM 3-chlorobenzoate, analogue 500 μM, normalized to rate with no analogue
[8] = growing cells and resuspended cells

For O=C(O)c1ccccc1Cl [2-chloro-], the “Induction Activity (3-chlorobenzoate dechlorination activity)” value (from here on “Induction Activity”) [1, 5] was 0 ± 0 nMol/hr/mg protein.
In the case of O=C(O)c1ccccc1I [2-iodobenzoate], the “Induction Activity” value [1, 5] was 13 ± 9 nMol/hr/mg protein.
With O=C(O)c1cccc(F)c1 [3-fluorobenzoate] the “Induction Activity” value [1, 6] was 570 ± 37 nMol/hr/mg protein and the activity at 500 µM [2, 7] was 114%.
With O=Cc1cccc(C(=O)O)c1 [3-formylbenzoate] the “Induction Activity” value [1, 6] was 8 ± 1 nMol/hr/mg protein.
In the case of O=C(O)c1cccc(I)c1 [3-iodo-, m-iodobenzoate], the “Induction Activity” value [1, 5] was 582 ± 59 nMol/hr/mg protein.
In the case of Cc1cccc(C(=O)O)c1 [3-methyl-benzoate], the “Induction Activity” value [1, 6] was 409 ± 6 nMol/hr/mg protein and the activity at 500 µM [2, 7] was 119%.
With O=C(O)c1ccc(I)cc1 [4-iodobenzoate] the “Induction Activity” value [1, 5] was 7 ± 10 nMol/hr/mg protein.
In the case of OCc1cccc(Cl)c1 [--CH2 OH --Cl, 3-chlorobenzyl alcohol], the “Induction Activity” value [1, 6] was 86 ± 5 nMol/hr/mg protein and the activity at 500 µM [2, 7] was 108%.
In the case of O=C(O)c1cccc(C(F)(F)F)c1 [--COOH --CF3, m-trifluoromethyl benzoate], the “Induction Activity” value [1, 6] was 383 ± 6 nMol/hr/mg protein and the activity at 500 µM [2, 7] was 94%.
For N#Cc1cccc(C(=O)O)c1 [--COOH --CN], the “Induction Activity” value [1, 6] was 7 ± 1 nMol/hr/mg protein and the activity at 500 µM [2] was 76%.
O=C(O)c1ccccc1 [--COOH --H, benzoate] gave an activity at 500 µM [2] of 106%.
For Nc1cccc(C(=O)O)c1 [--COOH --NH2], the “Induction Activity” value [1, 6] was 4 ± 1 nMol/hr/mg protein and the activity at 500 µM [2, 7] was 78%.
For O=C(O)c1cccc(O)c1 [--COOH --OH], the “Induction Activity” value [1, 6] was 3 ± 4 nMol/hr/mg protein and the activity at 500 µM [2, 7] was 91%.
In the case of O=S(=O)(O)O [Sulfate], the “effect on dechlorination of 3CB” value (dechlorination of 3CB; cells growing on a different medium or resuspended cells) is given as “not by cells growing on a different medium or by resuspended cells” and the “effect on dechlorination of 3CB” value (dechlorination of 3CB; cells growing on one medium) is given as “inhibited dechlorination of 3CB”.
With ClC=C(Cl)Cl [TCE, trichloroethylene] the “product formation from PCE or TCE” value ([3]; Only cultures pre-induced with 3-fluorobenzoate) was “measurable product formation”, the “Mole % recovered, TCE” value ([3]; induced (+)) was 89.2 Mole % and the “Mole % recovered, cis-DCE” value ([3]; induced (+)) was 10.8 Mole %. For the same compound, the “Total Cl Removed” value ([3]; induced (+)) was 11.0 μmol/g prot. in 2 h, the “Mole % recovered, TCE” value ([3]; non-induced (-)) was 100.0 Mole % and the “Mole % recovered, cis-DCE” value ([3]; non-induced (-)) was 0.0 Mole %. The “Total Cl Removed” value ([3]; non-induced (-)) was 0.0 μmol/g prot. in 2 h and the “rate of transformation of TCE to DCE” value ([3]; pre-induced with 3-fluorobenzoate) was 11 mol g protein ^-1 in 2h.
In the case of O=S(O)(O)=S [Thiosulfate], the “effect on dechlorination of 3CB” value (dechlorination of 3CB; [8]) is listed as “inhibit dechlorination of 3CB”.
With C=O [formaldehyde] the “effect on PCE dechlorination” value [4] was “almost totally blocked dechlorination”.
For O=S(O)O [sulfite], the “effect on dechlorination of 3CB” value (dechlorination of 3CB; [8]) is listed as “inhibit dechlorination of 3CB”.
